Assay results taken from PubChem BioAssay (NCI).
Where “and” joins values, the source holds several entries; their conditions need not be identical. Identical values can stand only once.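 Where inhibition never reached the appropriate level, the endpoint shown equals the highest concentration tested. Otherwise, values were interpolated linearly from a five-concentration, 48-hour dose response in 96-well plates. Abbreviation: GI50, concentration required for 50% inhibition of growth. TGI is the concentration that stops growth completely.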

Key:
Test in all cases: DTP human tumour cell line panel, 48 h
[1] = test system: HOP-92 NSCLC
[2] = test system: MDA-MB-435
[3] = test system: UACC-257 melanoma
[4] = test system: UACC-62 melanoma
[5] = test system: SK-MEL-5 melanoma
[6] = test system: KM12 colon
[7] = test system: SR leukemia
[8] = test system: TK-10 renal
[9] = test system: SNB-19 CNS
[10] = test system: HOP-62 NSCLC

SMILES	GI50 [1] [µM]	TGI [1]	GI50 [2] [µM]	TGI [2]	GI50 [3] [µM]	TGI [3]	GI50 [4] [µM]	TGI [4]	GI50 [5] [µM]	TGI [5]	GI50 [6] [µM]	TGI [6]	GI50 [7]	TGI [7]	GI50 [8] [µM]	TGI [8]	GI50 [9] [µM]	TGI [9]	GI50 [10] [µM]	TGI [10]
COc1ccc(-c2nn(-c3cccc(NC(=O)Nc4cc(C(F)(F)F)cc(C(F)(F)F)c4)c3)cc2-c2ccncc2)cc1Cl	0.17	1.33 µM	0.959	3.12 µM	1.07	3.74 µM	0.948	3.11 µM	0.827	1.7 µM	1.09	4.17 µM	1.02 µM	3.13 µM	1.67	10.9 µM	1.62	18.2 µM	1.09	3.29 µM
O=c1[nH]c(SCc2c(Cl)c(Cl)c(Cl)c(Cl)c2Cl)nc(=S)[nH]1	–	> 100 µM	–	> 100 µM	–	> 100 µM	–	> 100 µM	–	> 100 µM	–	> 100 µM	–	0.516 µM	–	> 100 µM	–	> 100 µM	–	> 100 µM
N#Cc1c(-c2ccccc2)cc(-c2ccccc2)n(CCCCC(=O)NO)c1=O	2.23	7.57 µM	2.4	11.5 µM	2.15	12.4 µM	2.2	6.02 µM	1.84	3.59 µM	2.8	13.6 µM	1.32 µM	8.37 µM	2.5	11.2 µM	3.53	15.6 µM	2.24	7.35 µM
OC(COc1cccc2ccccc12)CN1CCN(c2ccccc2)CC1 (stereo not given)	4.86	19 µM	15.5	30.5 µM	16	30.1 µM	14.1	28.5 µM	15.9	29.9 µM	16.1	31 µM	16.1 µM	41.3 µM	13.6	26.9 µM	15.8	30.7 µM	13.4	26.8 µM
COc1ccc(/C=C\c2cc(OC)c(OC)c(OC)c2)cc1OC(=O)c1cccc(Cn2cc(CCOC(=O)c3cccc(Cn4nnc5c4C(=O)c4ccccc4C5=O)c3)nn2)c1	0.464	33.7 µM	< 0.01	–	22.9	> 100 µM	–	24.8 µM	< 0.01	0.0474 µM	< 0.0133	> 77.6 µM	< 0.01 µM	> 100 µM	9.58	33.5 µM	–	30.6 µM	0.0381	27 µM
CC(=O)OC[C@]12CC[C@@H]([C@@H](C)C(N)=O)[C@@H]1[C@H]1CC[C@@H]3[C@@]4(C)CC[C@H](OC(C)=O)C(C)(C)[C@@H]4CC[C@@]3(C)[C@]1(C)CC2	5.21	19.4 µM	5.23	22.3 µM	4.83	22.7 µM	5.46	19.5 µM	3.8	13.1 µM	3.86	15.8 µM	3.32 µM	23.5 µM	14.7	39.8 µM	11.9	29.1 µM	11	26.6 µM
C#CCNC(=O)CC[C@]1(C)[C@H]2CC[C@@H]3[C@@H]([C@@](C)(O)CCC=C(C)C)CC[C@@]3(C)[C@]2(C)CC[C@H]1C(=C)C	14.8	34.2 µM	38.1	> 100 µM	68	> 100 µM	22.5	> 100 µM	38.8	> 100 µM	38.5	> 100 µM	3.05 µM	19.2 µM	43.7	> 100 µM	56.1	> 100 µM	35	> 100 µM
COc1c(CNC(=O)CCl)cc2[nH]c(C)cc2c1CNC(=O)CCl	4.08	20.2 µM	5.2	36.4 µM	6.8	36.5 µM	1.28	4.11 µM	8.02	25 µM	6.08	19.4 µM	4.36 µM	> 100 µM	9.17	56.7 µM	12.5	91 µM	6.1	20.2 µM
CN(C)CCN=Cc1c2ccccc2c(=O)n2c1oc1ccccc12	12.3	44.1 µM	10.1	21.7 µM	14.2	30.5 µM	10.8	23.6 µM	2.89	16.1 µM	8.8	21.7 µM	3.7 µM	> 100 µM	3.44	14 µM	7.45	21.4 µM	12.1	26.7 µM
CC1=C(/C=C/C(C)=C/C=C/C(C)=C/C(=O)Nc2ccc(O)cc2)C(C)(C)CCC1	1.77	4.1 µM and 6.11 µM	1.9	5.99 µM and 18.7 µM	4.55	17.4 µM and 24 µM	–	6.94 µM and 7.34 µM	2.1	7.21 µM and 12 µM	1.58	6.19 µM and 17.2 µM	2.53 µM and 1.33 µM	6.02 µM and 5.97 µM	5.07	15.5 µM and 35.4 µM	4.83	20.4 µM and 18.2 µM	–	9.95 µM and 15.2 µM
COC(=O)[C@H](CC(C)C)NC(=O)NC(=O)NC(=O)CI	2.14	4.98 µM	6.1	19.2 µM	7.76	20.3 µM	13.4	28.2 µM	16.4	30.3 µM	15.8	32.8 µM	1.25 µM	4.37 µM	1.72	3.62 µM	18	37.1 µM	18.2	34.2 µM
O=C1c2ccccc2-c2c1c1ccccc1c(=O)n2CCCN1CCN(CCCn2c3c(c4ccccc4c2=O)C(=O)c2ccccc2-3)CC1	19.9	74.1 µM	> 100	> 100 µM	> 100	> 100 µM	> 100	> 100 µM	> 100	> 100 µM	> 100	> 100 µM	0.0809 µM	17.9 µM	22.7	> 70.8 µM	99.4	> 100 µM	6.41	53.4 µM
